This note sets out measurements from ChEMBL document CHEMBL2073863, “Cloning and characterization of two human polyspecific organic cation transporters” (DNA Cell Biol, 1997).

Several values for one entry are separate records, joined by “and”; a condition that tells them apart may be missing. Equal entries are not always repeated.

Series [1] addresses T1, Solute carrier family 22 member 2 (Homo sapiens, UniProt O15244).
T1 sequence (O15244 whole entry): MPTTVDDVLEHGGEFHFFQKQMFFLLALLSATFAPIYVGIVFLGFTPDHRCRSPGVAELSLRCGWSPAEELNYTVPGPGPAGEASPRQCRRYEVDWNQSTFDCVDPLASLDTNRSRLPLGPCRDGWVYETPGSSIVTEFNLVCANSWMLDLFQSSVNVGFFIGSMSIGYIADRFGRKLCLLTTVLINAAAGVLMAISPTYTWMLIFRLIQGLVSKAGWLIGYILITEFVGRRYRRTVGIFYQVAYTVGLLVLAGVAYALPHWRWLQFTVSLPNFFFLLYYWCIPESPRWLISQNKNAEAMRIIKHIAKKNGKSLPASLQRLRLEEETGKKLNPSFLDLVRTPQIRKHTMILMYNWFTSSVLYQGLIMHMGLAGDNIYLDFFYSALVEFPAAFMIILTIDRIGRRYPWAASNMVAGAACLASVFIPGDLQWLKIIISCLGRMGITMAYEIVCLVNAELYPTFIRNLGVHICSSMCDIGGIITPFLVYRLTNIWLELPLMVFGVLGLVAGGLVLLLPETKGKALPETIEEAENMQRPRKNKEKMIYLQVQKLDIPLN
The series is described as follows: TP_TRANSPORTER: inhibition of TEA uptake in Xenopus laevis oocytes. It is filed as functional, cell-based, Oocyte.

Series [2] concerns the target T2, Solute carrier family 22 member 1 (Homo sapiens, UniProt O15245).
T2 sequence (O15245 whole entry): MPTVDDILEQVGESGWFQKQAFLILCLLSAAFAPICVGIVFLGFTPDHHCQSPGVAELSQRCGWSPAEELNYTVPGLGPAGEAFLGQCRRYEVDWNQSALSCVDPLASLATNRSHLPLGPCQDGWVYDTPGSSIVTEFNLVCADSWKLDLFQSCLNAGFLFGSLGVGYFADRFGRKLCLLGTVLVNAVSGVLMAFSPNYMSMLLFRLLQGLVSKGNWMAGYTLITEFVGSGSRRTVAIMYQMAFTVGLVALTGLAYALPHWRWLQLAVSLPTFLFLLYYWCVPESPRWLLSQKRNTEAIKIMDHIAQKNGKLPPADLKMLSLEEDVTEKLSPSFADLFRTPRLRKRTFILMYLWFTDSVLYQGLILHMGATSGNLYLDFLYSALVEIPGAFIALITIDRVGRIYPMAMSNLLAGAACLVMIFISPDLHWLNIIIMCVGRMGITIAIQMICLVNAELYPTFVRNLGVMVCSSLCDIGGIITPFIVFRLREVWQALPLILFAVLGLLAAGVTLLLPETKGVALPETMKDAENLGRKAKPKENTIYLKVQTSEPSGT
The series is described as follows: (§1) TP_TRANSPORTER: uptake in Xenopus laevis oocytes. The following applies: oocyte. Type of series: functional, cell-based.

Substrate in series [3]: CNC(=O)c1cccnc1
The description is as §1. It is filed as functional, cell-based, Oocyte.

Substrate in series [4]: C=C[C@H]1C[N@@]2CC[C@H]1C[C@H]2[C@H](O)c1ccnc2ccc(OC)cc12
Briefly: TP_TRANSPORTER: uptake (electrogenesis) in Xenopus laevis oocytes. Type of series: functional, cell-based, Oocyte.

Substrate in series [5]: C[N+](C)(C)CCO
The series is described as follows: cells, lysate or membranes named.

Substrate in series [6]: CC[N+](CC)(CC)CC
The series is described as follows: cells, lysate or membranes named.

For orientation: Ki means a dissociation constant, usually derived from enzyme kinetics or from competition with a known ligand. A low value points to a stronger hold on the target. What is called Km is the substrate concentration at which the rate is half of its maximum.

For the molecule `CCCCC[N+](CCCCC)(CCCCC)CCCCC` [TETRAPENTYLAMMONIUM], in series [1], the Ki turned out to be 1500 nM.

Consider `CC[N+](CC)(CC)CC` [TETRYLAMMONIUM], for which, in series [2], the Activity entry is “substrate [not saturable]”. On to `CC(C)C(c1ccccc1)C(O)CC[N+]1(C)CCCCC1` (centres undefined) [MEPIPERPHENIDOL BROMIDE], for which, in series [1], the inhibition constant Ki turned out to be 4800 nM. Turning to `CNC(=O)c1cccnc1` [NICOTINYL METHYLAMIDE], affinity in series [1] was put at a Ki of 266000 nM. The Activity entry in series [2] was “substrate [not saturable]”. `CC[n+]1c(CC2C=C(C)N=C(c3ccccc3)N2C)ccc2ccccc21` (centres undefined) [Cyanine-863] showed a Ki in series [1] of 210 nM. Same read-out and setting: with `COc1cc(C(O)CNC(C)C)ccc1O` (centres undefined) [METIPRENALINE] the figure was 570000 nM; with `CCN1/C(=C/c2ccc3ccccc3[n+]2CC)C=Cc2ccccc21`, 100 nM.

In the case of `C[n+]1ccc(-c2ccccc2)cc1`, the affinity in series [1], expressed as Ki, was 2400 nM. Also, the Activity entry in series [2] is “substrate [not saturable]”.

B1: Solute carrier family 22 member 2 (Homo sapiens) (protein)
chain: MPTTVDDVLEHGGEFHFFQKQMFFLLALLSATFAPIYVGIVFLGFTPDHRCRSPGVAELSLRCGWSPAEELNYTVPGPGPAGEASPRQCRRYEVDWNQSTFDCVDPLASLDTNRSRLPLGPCRDGWVYETPGSSIVTEFNLVCANSWMLDLFQSSVNVGFFIGSMSIGYIADRFGRKLCLLTTVLINAAAGVLMAISPTYTWMLIFRLIQGLVSKAGWLIGYILITEFVGRRYRRTVGIFYQVAYTVGLLVLAGVAYALPHWRWLQFTVSLPNFFFLLYYWCIPESPRWLISQNKNAEAMRIIKHIAKKNGKSLPASLQRLRLEEETGKKLNPSFLDLVRTPQIRKHTMILMYNWFTSSVLYQGLIMHMGLAGDNIYLDFFYSALVEFPAAFMIILTIDRIGRRYPWAASNMVAGAACLASVFIPGDLQWLKIIISCLGRMGITMAYEIVCLVNAELYPTFIRNLGVHICSSMCDIGGIITPFLVYRLTNIWLELPLMVFGVLGLVAGGLVLLLPETKGKALPETIEEAENMQRPRKNKEKMIYLQVQKLDIPLN
As for B1, the Km in series [3] was 300 µM; in series [4] it was 2.6 µM; in series [5], 190 µM and 210 µM; in series [6] it was 31 µM and 76 µM.
